Measurements from patent US20070219220A1, “Pyrazolopyrimidinethione Derivatives, Salts and Solvates Thereof, Preparation Methods and Use Thereof” (priority 2003, published 2007).

Tested on: rats with testis removed
Test: Duration of penile erection in rats with testis removed (Example 8)
Type: in vivo, wistar rats

Question: Which Penile swelling time (oral 10 mg/kg, at 1 h after administration) does the source give for `CCCc1nn(C)c2c(=S)[nH]c(-c3cc(S(=O)(=O)N4C[C@@H](C)N[C@@H](C)C4)ccc3OCC)nc12` [Compound (2), 5-[2-ethoxy-5-(cis-3,5-dimethylpiperazin-1-sulfonyl)phenyl]-1-methyl-3-n-propyl-1,6-dihydro-7H-pyrazolo[4,3-d]pyrimidin-7-thione] here?
Answer: The Penile swelling time was 679.6 ± 13.2 s.

Question: What about the Penile swelling time (oral 10 mg/kg, at 3 h after administration) of the same compound?
Answer: The Penile swelling time was 544.7 ± 166.9 s.

Question: What about the Penile swelling time (oral 10 mg/kg, at 6 h after administration) of the same compound?
Answer: The Penile swelling time was 268.7 ± 146.2 s.

Question: And the Penile swelling time (oral 10 mg/kg, at 24 h after administration)?
Answer: The Penile swelling time was 98.6 ± 57.9 s.

Question: What about the Penile swelling time (oral 10 mg/kg, value before administration) of the same compound?
Answer: The Penile swelling time was 67.7 ± 12.3 s.

Question: What about the Penile swelling time (oral 20 mg/kg, at 1 h after administration) of the same compound?
Answer: The Penile swelling time was 1514.8 ± 258.9 s.

Question: What about the Penile swelling time (oral 20 mg/kg, at 3 h after administration) of the same compound?
Answer: The Penile swelling time was 906.0 ± 406.7 s.

Question: And the Penile swelling time (oral 20 mg/kg, at 6 h after administration)?
Answer: Its Penile swelling time is 275.8 ± 154.2 s.

Question: And the Penile swelling time (oral 20 mg/kg, at 24 h after administration)?
Answer: The Penile swelling time was 201.0 ± 85.7 s.

Question: What about the Penile swelling time (oral 20 mg/kg, value before administration) of the same compound?
Answer: The Penile swelling time was 82.4 ± 26.6 s.

Question: What about the “how long the penile swelling effect lasts after administration” value (oral 40 mg/kg and 20 mg/kg) of the same compound?
Answer: The value was “up to 24 hours”.

Question: What about the Penile swelling time (oral 40 mg/kg, at 1 h after administration) of the same compound?
Answer: The Penile swelling time was 2187.1 ± 547.8 s.

Question: And the Penile swelling time (oral 40 mg/kg, at 3 h after administration)?
Answer: The Penile swelling time was 783.0 ± 329.2 s.

Question: What about the Penile swelling time (oral 40 mg/kg, at 6 h after administration) of the same compound?
Answer: The Penile swelling time was 678.7 ± 221.8 s.

Question: And the Penile swelling time (oral 40 mg/kg, at 24 h after administration)?
Answer: Its Penile swelling time is 194.0 ± 65.1 s.

Question: What about the Penile swelling time (oral 40 mg/kg, value before administration) of the same compound?
Answer: The Penile swelling time was 84.0 ± 18.4 s.
